Conditions: 283.15 K, Liquid, Vibrating tube method

CCCCCCCC(=O)OCC(COC(=O)CCCCCCC)(COC(=O)CCCCCCC)COC(=O)CCCCCCC [pentaerythritol tetraoctanoate]
Conditions | mass density [kg/m3]
24659 kPa | 983.6
24685 kPa | 983.7
24711 kPa | 983.7
24742 kPa | 983.8
24769 kPa | 983.8
24795 kPa | 983.8
24827 kPa | 983.7
24853 kPa | 983.8
24885 kPa | 983.8
24912 kPa | 983.7
24938 kPa | 983.8
24965 kPa | 983.8
24997 kPa | 983.8
25024 kPa | 983.8
25051 kPa | 983.9
25084 kPa | 983.9
25110 kPa | 983.9
25143 kPa | 983.8
25170 kPa | 983.9
25197 kPa | 984
25229 kPa | 984
25256 kPa | 984
25284 kPa | 984
25312 kPa | 984
25344 kPa | 984
25372 kPa | 984
25405 kPa | 983.9
25433 kPa | 984.1
25461 kPa | 984.1
25494 kPa | 984.1
25521 kPa | 984.2
25549 kPa | 984.1
25583 kPa | 984.1
25611 kPa | 984.2
25639 kPa | 984.2
25673 kPa | 984.2
25701 kPa | 984.1
25730 kPa | 984.4
25758 kPa | 984.3
25792 kPa | 984.2
25821 kPa | 984.3
25850 kPa | 984.3
25884 kPa | 984.3
25912 kPa | 984.3
25941 kPa | 984.2
25976 kPa | 984.3
26004 kPa | 984.3
26034 kPa | 984.5
26069 kPa | 984.4
26098 kPa | 984.3
26126 kPa | 984.4
26162 kPa | 984.4
26191 kPa | 984.5
26220 kPa | 984.4
26250 kPa | 984.4
26286 kPa | 984.5
26315 kPa | 984.5
26350 kPa | 984.6
26380 kPa | 984.6
26411 kPa | 984.6
26442 kPa | 984.6
26478 kPa | 984.6
26508 kPa | 984.6
26538 kPa | 984.6
26568 kPa | 984.6
26604 kPa | 984.5
26634 kPa | 984.6
26666 kPa | 984.6
26702 kPa | 984.7
26733 kPa | 984.7
26770 kPa | 984.7
26802 kPa | 984.7
26834 kPa | 984.8
26866 kPa | 984.8
26897 kPa | 984.8
26929 kPa | 984.9
26966 kPa | 984.8
26997 kPa | 984.8
27034 kPa | 984.8
27066 kPa | 984.8
27098 kPa | 984.9
27129 kPa | 984.9
27167 kPa | 984.9
27199 kPa | 985
27237 kPa | 985.1
27270 kPa | 984.9
27302 kPa | 985.1
27340 kPa | 985.1
27372 kPa | 985
27404 kPa | 985
27437 kPa | 985
27476 kPa | 985.2
27508 kPa | 985.2
27546 kPa | 985.1
27579 kPa | 985.1
27612 kPa | 985.2
27651 kPa | 985.2
27685 kPa | 985.1
27718 kPa | 985.1
27752 kPa | 985.1
27792 kPa | 985.2
27825 kPa | 985.3
27859 kPa | 985.3
27899 kPa | 985.3
27932 kPa | 985.4
27972 kPa | 985.3
28007 kPa | 985.3
28040 kPa | 985.5
28074 kPa | 985.5
28116 kPa | 985.4
28150 kPa | 985.5
28185 kPa | 985.4
28226 kPa | 985.4
28260 kPa | 985.5
28302 kPa | 985.5
28336 kPa | 985.5
28371 kPa | 985.5
28406 kPa | 985.5
28448 kPa | 985.5
28483 kPa | 985.6
28519 kPa | 985.5
28561 kPa | 985.6
28596 kPa | 985.7
28632 kPa | 985.7
28676 kPa | 985.6
28712 kPa | 985.7
28748 kPa | 985.8
28784 kPa | 985.6
28827 kPa | 985.7
28863 kPa | 985.8
28900 kPa | 985.8
28943 kPa | 985.7
28980 kPa | 985.8
29017 kPa | 985.8
29061 kPa | 985.9
29097 kPa | 985.9
29135 kPa | 985.9
29173 kPa | 985.9
29217 kPa | 985.8
29255 kPa | 985.9
29293 kPa | 986
29338 kPa | 986
29375 kPa | 986
29413 kPa | 986.1
29458 kPa | 986
29496 kPa | 986
29534 kPa | 986.1
29579 kPa | 986.1

— the NIST ThermoML archive (doi:10.1021/je060271a)
